Results as given in ChEMBL document CHEMBL3351471, “Antileishmanial metabolites from Geosmithia langdonii” (J Nat Prod, 2014).

Legend:
Format in all cases: functional, organism-based
[1] = tested on: Staphylococcus aureus; test: Antimicrobial activity against Staphylococcus aureus ATCC 29213
[2] = tested on: Staphylococcus aureus; test: Antimicrobial activity against methicillin-resistant Staphylococcus aureus ATCC 33591
[3] = tested on: Leishmania donovani; test: Antileishmanial activity against promastigote forms of Leishmania donovani by alamar blue assay

| Structure (SMILES) | IC50 [1] [µM] | IC50 [2] [µM] | IC50 [3] [µM] | IC90 [3] [µM] |
| --- | --- | --- | --- | --- |
| Cc1ccc(O)c(O)c1 | 148 | 72.9 |  |  |
| O=Cc1cc(O)ccc1O |  |  | 3.3 | 6.1 |
| OCc1cc(O)cc(O)c1Cc1ccc(O)c(O)c1 |  |  | 13 | 22 |
| CC1=C[C@H](O)[C@H]2O[C@H]2C1=O |  |  | 6.9 | 10.8 |
| OCc1cccc(O)c1 |  |  | 34 | 52.3 |
| CC1=C[C@@H](O)[C@H](O)CC1=O (single isomer, unassigned) |  |  | 47.3 | 61 |
| C[C@@H]1[C@H](O)[C@@H](C)/C=C/C=C/C=C/C=C/C=C/C=C/C=C/[C@H](O[C@@H]2O[C@H](C)[C@@H](O)[C@H](N)[C@@H]2O)C[C@@H]2O[C@](O)(C[C@@H](O)C[C@@H](O)[C@H](O)CC[C@@H](O)C[C@@H](O)CC(=O)O[C@H]1C)C[C@H](O)[C@H]2C(=O)O [AMPHOTERICIN B] |  |  |  | 0.4 |
| OCc1cc(O)ccc1O [GENTISYL ALCOHOL] |  |  | 8.5 | 10.4 |
| Cc1cccc(O)c1 [METACRESOL] |  |  | 9.2 | 12.4 |
| N=C(N)c1ccc(OCCCCCOc2ccc(C(=N)N)cc2)cc1 [PENTAMIDINE] |  |  | 3.2 | 5.9 |
